{
  "source": "patent US8974768B2",
  "about": "“Azo compounds reducing formation and toxicity of amyloid beta aggregation intermediates” (Max-Delbrueck-Centrum fuer Molekulare Medizin, priority 2010, dated 2015)",
  "key": {"[1]": {"tested_on": "5XFAD mice", "assay": "Nest building behaviour in 5XFAD mice", "format": "in vivo, mouse", "procedure": "3a: Nestlet usage; 3b: Nestlet quality score.\nOne hour before the dark phase, mice were housed individually in a cage with wood-chip bedding material. Each mouse was given 3 g of nestlet material made of compressed cotton (Lillico Biotech, UK). The amount of intact, i.e. non-used, nesting material was weighed after 16 hours and nest building was assessed using the following rating scale (Deacon et al., 2006, Tomida et al., 2009): 1, >90% intact; 2, 50-90% intact; 3, 10-50% intact: 4, 0-10% intact, but flat nest; 5, 0-10%, with nests higher than the mice. The amount of intact nesting material was weighed. The data were non-normally distributed.\nNon normally distributed data were analyzed by a Kruskal Wallis test. A post-hoc test using Mann-Whitney tests with Bonferroni corrections was then used for group comparisons.\nNest building is one of several species-typical behavior in mice seen in semi-naturalistic situations. […] Alzheimer's disease in 5XFAD mice will damage these areas, leading to memory impairments in some standard cognitive tests, and to an impairment of species-typical behaviors like nesting.\nThe brain circuitry of wild type mice is intact so they show robust nest building behavior. Transgenic 5XFAD on the other hand have impaired brain circuitry due to the noxious effects of human amyloid-beta protein. They are therefore less able to fulfill this important house-keeping species typical behavior (Deacon R M. (2006): Assessing nest building in mice. Nat Protoc. 2006; 1(3):1117-9; Tomida et al (2009): Usp46 is a quantitative trait gene regulating mouse immobile behavior in the tail suspension and forced swimming tests. Nat Genet. 2009 June; 41(6):688-95. Epub 2009 May 24.)."}, "[2]": {"target": "Aβ1-42 peptide (Homo sapiens, UniProt P05067)", "sequence (P05067 672-713)": "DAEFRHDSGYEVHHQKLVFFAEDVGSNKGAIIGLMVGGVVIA", "assay": "Thioflavin T (Thio T)-assay of Aβ aggregation", "format": "biochemical", "details": "30 μM Aβ1-42 peptide, 48 h at 37° C., vs DMSO control; read-out: ThioT: IC50"}, "[3]": {"assay": "in vitro", "details": "human"}, "[4]": {"tested_on": "Tg2576 mice", "assay": "Contextual fear conditioning in Tg2576 mice", "format": "in vivo, mouse", "details": "9-month-old Tg2576 mice, feeding pellets for 12 weeks", "procedure": "Groups of Tg2576 mice overexpressing the 695-amino acid isoform of human amyloid precursor protein containing a Lys670→Asn, Met671→Leu mutation (Hsiao, K. Science 1996) and wildtype control mice (13-21 per phenotype) were conditioned on day 1 by placing a subject mouse in a contextual fear conditioning chamber (Med Associates, […], Vt.). Exploration was allowed for 2 min, and an auditory cue was presented for 15 s accompanied by an electrical foot shock during the last 2 s. This procedure was repeated and mice were removed from the chamber after 30 s. Twenty hours later, mice were returned to the chamber in which conditioning occured, and their freezing behaviour (fear) was monitored. Freezing was defined as the lack of all movements, except those required for breathing (Comery, T. A., et al. Journal of Neuroscience, 2005). Data were analysed by two-way ANOVA in the S programming environment, followed by Fischer's least significant difference (LSD) pairwise comparison of group means at the p<0.05 significance level.\nThe contextual fear conditioning paradigm is a form of Pavlovian learning in which an association is made between stimuli and their aversive consequences. Studies of brain function implicate the amygdala in regulating fear, and the hippocampus in regulating the learning of the context in which a fearful event occurred.\nThe brain circuitry in wild type mice is intact and they are better able to associate an aversive foot shock with the context or environment in which the shock took place. They therefore show more freezing. Transgenic Alzheimer mice have compromised brain circuitry due to the toxic effects of amyloid-beta protein. They are therefore less able to associate an aversive shock with a context and show less freezing.\nA substance that reverses the toxic effects of amyloid-beta in Alzheimer's mice will help in reconsolidating the impaired brain circuitry so that these mice begin to show more fear (freezing behavior) after treatment. This paradigm is therefore a robust method for showing the effect of drug candidate molecules in Alzheimer mice."}, "[5]": {"assay": "Detection of compounds in brain after in vivo administration"}, "[6]": {"details": "transgenic and wild-type mice vs control mice"}},
  "note": "pIC50: −log10 of the molar value.",
  "data": [
    {"smiles": "O=[N+]([O-])c1ccc(N=Nc2ccc(Nc3ccccc3)cc2)cc1", "note": "[Compound 2, 4-((4-nitrophenyl)diazenyl)-N-phenylaniline]", "values": [
      {"measurement": "Nest building behavior", "setting": "[1]; 5XFAD mice, pelleted mouse chow for 8.5 months", "value": "improved"},
      {"measurement": "Nest building behavior in transgenic mice", "setting": "[1]; transgenic 5XFAD mice, higher concentration (625 mg/kg feed) vs control mice", "value": "significantly enhanced"},
      {"measurement": "Nest building behavior (nestlet usage, FIG. 3a)", "setting": "[1]; [6]", "value": "increased"},
      {"measurement": "Nestlet quality score (FIG. 3b)", "setting": "[1]; [6]", "value": "increases"},
      {"measurement": "pIC50", "setting": "[2]", "value": 5.77},
      {"measurement": "IC50 at 48 h", "setting": "[3]", "value": "> 100000", "unit": "nM"},
      {"measurement": "Contextual memory (freezing behaviour)", "setting": "[4]", "value": "improvement"},
      {"measurement": "Detection in brain after i.v. administration", "setting": "[5]; B6C3 mouse, 5 mg/kg body weight i.v. once, brain samples", "value": "++"},
      {"measurement": "Detection in brain after oral administration, feeding pellet preparation", "setting": "[5]; mouse, brain samples after one week feeding", "value": "++^a), b)"},
      {"measurement": "Detection in brain after oral administration, oral gavage administration", "setting": "[5]; mouse, five to seven doses over two or three days, sampling 30 min. after last application", "value": "++^a), b)"}
    ]}
  ]
}
